According to patent US20260209220A1, “SUBSTITUTED TETRAHYDROPYRROLO-PYRIDINONE COMPOUNDS AND THEIR USE IN TREATING MEDICAL CONDITIONS” (Karuna Therapeutics, Inc., priority 2022, published 2026):

Assays:
hM4 receptors = target: T1, hM4 receptors (Homo sapiens, UniProt P08173); experiment: Human M4 PAM PERK assay (CHO cells, TR-FRET, with EC20 acetylcholine); type: cell-based
T1 construct: expressed in transfected cells; host or cells: CHO cells
T1 sequence (P08173 1-479): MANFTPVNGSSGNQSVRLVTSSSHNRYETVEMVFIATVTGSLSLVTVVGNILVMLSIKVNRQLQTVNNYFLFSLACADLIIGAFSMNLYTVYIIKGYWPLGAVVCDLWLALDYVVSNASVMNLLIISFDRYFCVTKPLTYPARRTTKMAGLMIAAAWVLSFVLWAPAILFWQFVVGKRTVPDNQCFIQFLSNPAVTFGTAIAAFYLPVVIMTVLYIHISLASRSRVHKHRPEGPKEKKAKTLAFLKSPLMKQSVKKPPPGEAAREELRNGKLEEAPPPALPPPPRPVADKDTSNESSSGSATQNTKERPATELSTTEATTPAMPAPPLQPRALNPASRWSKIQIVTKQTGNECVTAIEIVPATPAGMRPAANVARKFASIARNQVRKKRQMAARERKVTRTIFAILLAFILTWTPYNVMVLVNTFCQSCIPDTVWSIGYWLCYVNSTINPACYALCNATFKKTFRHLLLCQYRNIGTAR
Experimental: (§1) Chinese hamster ovary (CHO) cells expressing either hM4 or rM4 receptors were frozen in assay ready vials (5×10^6 cells/vial) after bulking-up in culture. The day before an assay, vial(s) were thawed and cells seeded in 384 well white proxiplates at 1000/well for hM4 cells and at 2000/well for rM4 cells, in 10 μL of growth media (Hams/F12 with glutamax and 10% FCS) and incubated overnight at 37° C./5% CO2.
(§2) On the following morning, the growth media was removed by ‘flicking out’ over a bin, patting the inverted plate onto tissue, and then replacing with 10 μL of wash media (Hams/F12 with glutamax and 8 mM HEPES, NB: serum free). Then, the wash media was removed in the same way and replaced with 8 μL/well of the serum free media. Plates were then re-incubated for a further 4 hours at 37° C./5% CO2.
(§3) Compounds for testing were solubilized to 10 mM in DMSO and compound addition plates, consisting of ten-point concentration response curves (CRC) in duplicate points (10 μM top concentration, ½ log dilution series), were prepared by acoustic dispensing and the compound management group.
(§4) After the 4-hour incubation in serum free media, a 4 μL aliquot of the 3×compound solution containing an EC20 of acetylcholine (10 nM final concentration) was added to the cell plate using a 384 well plate to plate transfer. Then, the plate lid was replaced, and the cells incubated for 5 mins at 37° C./5% CO2. Following this final incubation, all cellular processes were stopped by the addition of 4 μL/well of lysis and blocking buffer and plates were incubated for 30 minutes at RT on an orbital shaker (gentle setting). Then, a final addition of 4 μL/well of antibody detection mix, containing both the Europium-Cryptate (donor) and d2 (acceptor) tagged detection components, was added followed by a further 2-hour incubation at RT, and then the plate was read using a TR-FRET (time resolved fluorescence resonance energy transfer) based protocol.

human M4 receptor = target: T2, human M4 receptor (Homo sapiens, UniProt P08173); experiment: M4 GTPγS PAM assay (CHO-K1 membranes, 35S-GTP binding, with EC20 acetylcholine); type: biochemical; conditions: with EC20 acetylcholine (40 nM)
T2 construct: expressed in transfected cells; host or cells: CHO-K1 cells (membranes)
T2 sequence (P08173 1-479): T1 sequence (P08173 1-479)
Experimental: The M4 GTPγS PAM method was used. Membranes were prepared for GTPgS binding assays from CHO-K1 cells stably expressing human M4 receptor. Briefly, cells were grown in 5-layer cell culture flasks. Cells were washed with 50 mL of PBS and then dissociated with 0.05% trypsin. Dissociated cells were then collected by centrifugation at 650×g for 8 minutes at 4° C. Pellets were washed again in PBS by centrifugation and resuspended in 30 mL of 20 mM HEPES, 10 mM EDTA, pH 7.4. After sitting on ice for 30 min, membranes were collected by centrifugation at 50000×g for 15′ at 4° C., resuspended in 30 mL of 20 mM HEPES, 0.1 mM EDTA, pH 7.4 and collected again by centrifugation. Pellets were then washed twice by centrifugation in 30 mL of 20 mM HEPES, pH 7.4, and stored at −80° C. until the day of the assay. On the day of the assay, pellets were thawed on ice and resuspended in 1 mL of 20 mM HEPES, pH 7.4, 10 mM MgCl2, 100 mM NaCl using dounce homogenization. Membrane protein concentration is determined by BCA protein assay (Promega, Madison, WI) according to Promega guidelines.
On the day of the assay, serial dilutions of test PAM compounds were brought up in assay buffer (20 mM HEPES, 10 mM MgCl2, 100 mM NaCl) at 4X final assay concentration. […] of membrane homogenates (containing […] of membrane protein) were prepared in assay buffer supplemented with GDP at […] final assay concentration (final assay concentration of GDP is 5 μM for M2 and 0.1 μM for M4) and dispensed into 96 well polypropylene, U-bottom Greiner plates. 25 ml of vehicle or test PAM compound at 4× of final assay concentration diluted in the assay buffer were added to membrane and plates are incubated for 10-15 minutes at room temperature with gentle shaking. Then, […] of EC20 acetylcholine in assay buffer at 4× final assay concentration was added to assay plates (EC20 final assay concentrations was 40 nM for human M4).
Plates were then incubated, with shaking, for an additional 10-15 minutes. […] of 0.4 nM 35S-GTP (Perkin Elmer, Waltham, MA) in assay buffer was added to assay mixtures. The binding reaction is left on the shaker for 1 hour at room temperature. Membranes in assay reactions were then transferred to GF/C filter plates (Unifilter, Perkin Elmer) and washed three times using a FilterMate Harvester (Perkin Elmer) with cold assay buffer containing no GDP. Filter plates were then dried at 40° C. overnight followed by the addition of […] of Beta Plate Scintillation liquid. Plates are top and bottom sealed before being read on TopCount scintillation counter (Perkin Elmer, Waltham, MA).

rM4 receptors = target: T3, rM4 receptors (Rattus norvegicus, UniProt P08485); experiment: Rat M4 PAM PERK assay (CHO cells, TR-FRET, with EC20 acetylcholine); type: cell-based
T3 construct: expressed in transfected cells; host or cells: CHO cells
T3 sequence (P08485 1-478): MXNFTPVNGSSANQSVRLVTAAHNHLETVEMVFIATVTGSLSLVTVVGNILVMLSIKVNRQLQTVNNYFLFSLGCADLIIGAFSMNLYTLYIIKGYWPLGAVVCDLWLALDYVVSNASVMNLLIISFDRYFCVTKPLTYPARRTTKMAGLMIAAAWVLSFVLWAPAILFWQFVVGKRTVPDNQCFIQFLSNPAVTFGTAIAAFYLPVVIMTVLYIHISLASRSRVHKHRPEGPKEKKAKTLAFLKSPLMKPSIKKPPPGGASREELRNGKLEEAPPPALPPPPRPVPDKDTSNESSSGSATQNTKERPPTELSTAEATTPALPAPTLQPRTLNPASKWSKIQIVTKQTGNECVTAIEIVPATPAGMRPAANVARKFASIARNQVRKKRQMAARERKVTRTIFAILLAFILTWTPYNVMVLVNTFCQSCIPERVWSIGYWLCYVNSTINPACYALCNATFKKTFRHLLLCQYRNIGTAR
Experimental: as §1, §2, §3, §4

EC50 (hM4 receptors) [nM]	EC50 (human M4 receptor) [nM]	EC50 (rM4 receptors) [nM]	Structure (SMILES)
> 1000	> 1000	> 1000	Cc1c2c(n(C)c(=O)c1Cl)CN(C(=O)C(C)C1CN(c3ccnc(C(F)(F)F)c3)C1)C2 (single isomer, unassigned) [Compound I-82, 3-Chloro-1,4-dimethyl-6-(2-(1-(2-(trifluoromethyl)pyridin-4-yl)azetidin-3-yl)propanoyl)-1,5,6,7-tetrahydro-2H-pyrrolo[3,4-b]pyridin-2-one]
200 to 1000	> 1000	50 to 200	Cc1cc(=O)n(C)c2c1CN(C(=O)CC1CN(c3cnc(C(F)(F)F)cn3)C1)C2 [Compound I-26]
200 to 1000	200 to 1000	200 to 1000	Cc1cc(=O)n(C)c2c1CN(C(=O)CC1CN(c3nc(C(F)(F)F)ns3)C1)C2 [Compound I-28]
50 to 200	50 to 200	200 to 1000	Cc1cc(=O)n(C)c2c1CN(C(=O)CC1CN(c3ncc(C(F)(F)F)s3)C1)C2 [Compound I-29]
50 to 200	200 to 1000	50 to 200	Cc1cc(=O)n(C)c2c1CN(C(=O)CC1CN(c3cnnc(C(F)(F)F)c3)C1)C2 [Compound I-30]
50 to 200	200 to 1000	50 to 200	Cc1cc(=O)n(C)c2c1CN(C(=O)CC1CN(c3nc(C(F)(F)F)cs3)C1)C2 [Compound I-31]
50 to 200	200 to 1000	200 to 1000	Cc1cc(=O)n(C)c2c1CN(C(=O)CC1CN(c3cccc(F)c3C)C1)C2 [Compound I-33]
> 1000	> 1000	> 1000	Cc1cc(=O)n(C)c2c1CN(C(=O)CC1CN(c3cnn(C(F)(F)F)c3)C1)C2 [Compound I-34]
50 to 200	50 to 200	50 to 200	Cc1cc(=O)n(C)c2c1CN(C(=O)CC1CN(c3nc(C4CC4)ns3)C1)C2 [Compound I-35]
< 50	< 50	200 to 1000	Cc1cc(=O)n(C)c2c1CN(C(=O)CC1CN(c3cc(F)cc(F)c3)C1)C2 [Compound I-36]
200 to 1000	200 to 1000	> 1000	Cc1cc(=O)n(C)c2c1CN(C(=O)CC1CN(c3cnn(C4CC4)c3)C1)C2 [Compound I-37]

Second part, the compound before the results:

Structure (SMILES)	EC50 (hM4 receptors) [nM]	EC50 (human M4 receptor) [nM]	EC50 (rM4 receptors) [nM]
Cc1cc(=O)n(C)c2c1CN(C(=O)CC1CN(c3cccnc3)C1)C2 [Compound I-3]	50 to 200	< 50	200 to 1000
COc1cccc(N2CC(CC(=O)N3Cc4c(C)cc(=O)n(C)c4C3)C2)c1 [Compound I-7]	200 to 1000	200 to 1000	50 to 200
Cc1cc(=O)n(C)c2c1CN(C(=O)CC1CN(c3ccc(C(F)(F)F)cn3)C1)C2 [Compound I-8]	200 to 1000	> 1000	> 1000
Cc1cc(=O)n(C)c2c1CN(C(=O)CC1CN(c3ccnc(OCC4CC4)c3)C1)C2 [Compound I-10]	< 50	50 to 200	200 to 1000
Cc1cc(=O)n(C)c2c1CN(C(=O)CC1CN(c3ccc(F)cc3)C1)C2 [Compound I-11]	200 to 1000	200 to 1000	200 to 1000
Cc1cc(=O)n(C)c2c1CN(C(=O)CC1CN(c3ccc(OC(F)(F)F)cc3)C1)C2 [Compound I-12]	200 to 1000	50 to 200	200 to 1000
Cc1cc(=O)n(C)c2c1CN(C(=O)CC1CN(c3cccc(C(F)(F)F)c3)C1)C2 [Compound I-13]	200 to 1000	50 to 200	200 to 1000
Cc1cc(=O)n(C)c2c1CN(C(=O)CC1CN(c3ccc4c(c3)COC4)C1)C2 [Compound I-16]	50 to 200	200 to 1000	200 to 1000
Cc1cc(=O)n(C)c2c1CN(C(=O)CC1CN(c3ccc(C#N)cc3)C1)C2 [Compound I-17]	< 50	50 to 200	50 to 200
Cc1cc(=O)n(C)c2c1CN(C(=O)CC1CN(c3ncns3)C1)C2 [Compound I-18]	200 to 1000	200 to 1000	> 1000
Cc1cc(=O)n(C)c2c1CN(C(=O)CC1CN(c3ccc(C4CC4)cc3)C1)C2 [Compound I-19]	200 to 1000	50 to 200	50 to 200
Cc1cc(=O)n(C)c2c1CN(C(=O)CC1CN(c3ccc(F)c(C(F)(F)F)c3)C1)C2 [Compound I-20]	50 to 200	200 to 1000	50 to 200
Cc1cc(=O)n(C)c2c1CN(C(=O)CC1CN(c3cnc(C(F)(F)F)nc3)C1)C2 [Compound I-21]	200 to 1000	> 1000	50 to 200
Cc1cc(=O)n(C)c2c1CN(C(=O)CC1CN(c3ccnc(C4CC4)c3)C1)C2 [Compound I-22]	50 to 200	200 to 1000	200 to 1000
Cc1cc(=O)n(C)c2c1CN(C(=O)CC1CN(c3ccnc(C(F)(F)F)n3)C1)C2 [Compound I-23]	200 to 1000	200 to 1000	200 to 1000
Cc1cc(=O)n(C)c2c1CN(C(=O)CC1CN(c3ccnc(C4CC4)n3)C1)C2 [Compound I-24]	50 to 200	50 to 200	200 to 1000
Cc1cc(=O)n(C)c2c1CN(C(=O)CC1CN(c3cccc(C#N)c3)C1)C2 [Compound I-25]	50 to 200	200 to 1000	200 to 1000
Cc1cc(=O)n(C)c2c1CN(C(=O)CC1CN(c3ccc(C#N)c(C(F)(F)F)c3)C1)C2 [Compound I-27]	50 to 200	50 to 200	50 to 200
